Patent US10808003B2, “Amphipathic molecule based on tandem malonate and use thereof” (Industry-University Cooperation Foundation Hanyang …, priority 2017, dated 2020)
Entries after “also recorded” stand apart in the source; their conditions may differ.

Tests used:
[1] = test system: T1, light harvesting complex I and reaction center (LHI-RC) complex; test: Stability of LHI-RC complex in amphipathic molecule, UV-visible spectrum over 20 days; assay type: biochemical, Rhodobacter capsulatus; details: CMC+0.04 wt % or CMC+0.2 wt %, 20 days at room temperature, FIGS. 7 and 8
T1 construct: His tag (only implied by the Ni-NTA / His-SpinTrap purification); made in house
Description: The super-assembly of R. capsulatus expressed in manipulated R. capsulatus strains was solubilized and purified according to a protocol disclosed in previous literature (P. S. Chae, Analyst, 2015, 140, 3157-3163.). A 10 mL aliquot of a frozen membrane was thawed, and homogenized using a glass tissue homogenizer at room temperature. The homogenate was incubated for 30 minutes at 32° C. under gentle agitation. After addition of 1.0 wt % DDM, the homogenate was further incubated for 30 minutes at 32° C. Following ultracentrifugation, a supernatant containing a solubilized light harvesting complex I and reaction center (LHI-RC) complex was collected, and incubated with an Ni^2+-NTA resin for 1 hour at 4° C. The resin was added to each 10 His-SpinTrap column, and then the resulting product was washed with 500 μL of a coupling buffer (10 mM Tris (pH 7.8), […], 1×CMC DDM) twice. The LHI-RC complex purified by DDM was eluted from the column using a buffer containing 1.0 M imidazole (2×300 μL). […] Protein stability was measured at regular intervals while a protein-amphipathic molecule sample was incubated by measuring the UV-visible spectrum of a specimen in a range of 650 to 950 nm.

[2] = Hydrodynamic radius of micelles by dynamic light scattering (DLS); assay type: physicochemical; details: micelles formed by each agent at 1.0 wt %
Description: A method of measuring the radius of the micelles is not particularly limited, and any method well known in the art, for example, a DLS test may be used.
(§1) Specifically, a CMC was measured using fluorescent staining and diphenylhexatriene (DPH), and the hydrodynamic radii (Rh) of micelles formed by each agent (1.0 wt %) were measured by a DLS test. The measured results were compared with those for the conventional amphipathic molecule (detergent), DDM, and thus are shown in Table 1.

[3] = target: T2, melibiose permease (MelBSt) (Salmonella typhimurium, UniProt P30878); test: MelBSt extraction and solubility at four temperatures, SDS-PAGE and western blotting; assay type: biochemical; details: 1.5 wt %, 90 minutes
T2 construct: made in house; host or cells: E. coli DW2 cells (melB and lacZY), plasmid pK95AHB/WT MelBSt/CH10
Description: An experiment was performed to measure structural stability of Salmonella typhimurium melibiose permease (MelBSt) protein by TMGs. The MelBSt protein was extracted from a membrane using TMGs or DDM, and then an amount of the extracted protein and its structure were analyzed by SDS-PAGE and western blotting. A concentration of the amphipathic molecule used was 1.5 wt %, and two types of performance such as protein extraction efficiency and stabilization ability of the compound were simultaneously evaluated by extracting the protein at four temperatures (0, 45, 55, and 65° C.), incubating the protein for 90 minutes at the same temperatures, and measuring an amount of the protein remaining dissolved in an aqueous solution. The amount of the protein extracted and stabilized by each amphipathic molecule was expressed as a relative value (%) with respect to a total amount of the protein contained in a membrane sample not treated with an amphipathic molecule.
Specifically, Salmonella typhimurium MelBSt (melibiose permease) having a 10-His tag at the C-terminus was expressed in E. coli DW2 cells (melB and lacZY) using plasmid pK95AHB/WT MelBSt/CH10. According to the method disclosed in the article written by A. S. Ethayathulla et al. (Nat. Commun. 2014, 5, 2009), cell growth and membrane preparation were performed. A protein assay was performed using a Micro BCA kit (Thermo Scientific, Rockford, Ill.). Using the protocol disclosed in Nat. Methods 2010, 7, 1003-1008 written by P. S. Chae et al., DDM or TMGs were evaluated for MelBSt stability. A MelBSt-containing membrane sample (the final protein concentration was 10 mg/mL) was incubated at four temperatures (0, 45, 55 and 65° C.) for 90 minutes in a 1.5% (w/v) DDM or TMG-containing solubilization buffer (20 mM sodium phosphate, pH 7.5, 200 mM NaCl, 10% glycerol, 20 mM melibiose). To remove insoluble material, ultracentrifugation was performed using a Beckman Optima™ MAX ultracentrifuge equipped with a TLA-100 rotor at 355,590 g at 4° C. for 45 minutes, and then 20 μg of each protein sample was separated using SDS-15% PAGE, followed by immunoblotting using a Penta-His-HRP antibody (Qiagen, Germantown, Md.). MelBSt was measured by an ImageQuant LAS 4000 biomolecular imager (GE Health Care Life Sciences) using a SuperSignal West Pico chemiluminescent substrate.

[4] = Critical micelle concentration by fluorescent staining with diphenylhexatriene (DPH); assay type: physicochemical; details: aqueous solution
Description: A method of measuring CMC is not particularly limited, and any method well known in the art, for example, a fluorescent staining method using diphenylhexatriene (DPH) may be used.
as §1

[5] = test system: LeuT (leucine transporter); test: LeuT stability by [3H]-Leu substrate binding, scintillation proximity assay (SPA); assay type: biochemical, Aquifex aeolicus
Description: An experiment of measuring LeuT protein stability for TMGs and TMMs was performed. (a) CMC+0.04 wt % or (b) CMC+0.2 wt % of each amphipathic molecule was used, and the evaluation of the LeuT protein stability was performed by taking an advantage of a characteristic of LeuT binding to a substrate through a scintillation proximity assay (SPA) using [^3H]-Leu. […]
Specifically, wild type LeuT (leucine transporter) derived from a thermophilic bacterium, Aquifex aeolicus, was purified by a previously-disclosed method (G. Deckert et al., Nature 1998, 392, 353-358). LeuT was expressed in E. coli C41 (DE3) transformed with pET16b encoding a C-terminus 8×His-tagged transporter (the expression plasmid was provided by Dr E. Gouaux, Vollum Institute, Portland, Oreg., USA). In summary, following isolation of a bacterial membrane and lysis with 1% (w/v) DDM, the protein was allowed to bind to a Ni^2+-NTA resin (Life Technologies, Denmark), and eluted in 20 mM Tris-HCl (pH 8.0), 1 mM NaCl, 199 mM KCl, 0.05% (w/v) DDM and 300 mM imidazole. Afterward, the purified LeuT (approximately 1.5 mg/ml) was diluted with the same buffer used above, from which DDM and imidazole were removed, and then supplemented with TMGs or DDM at the final concentration of CMC+0.04% (w/v). […] SPA was performed using a buffer containing 450 mM NaCl and each of the TMGs and TMMs at the predetermined concentration. The SPA reaction is performed in the presence of 20 nM [^3H]-Leucine and 1.25 mg/ml copper chelate (His-Tag) YSi beads (Perkin Elmer, Denmark). A total [^3H]-Leucine binding degree of each sample was measured using a MicroBeta liquid scintillation counter (Perkin Elmer).

Row | Compound | stability of the LHI-RC complex [1] | Rh (nm), hydrodynamic radius of micelles [2] [nm] | amount of MelBSt solubilized / extraction efficiency ([3]; 0° C.) | MelBSt remaining solubilized ([3]; 55° C.) [%] | MelBSt protein dissolved in aqueous solution ([3]; 65° C.) | CMC [4] [mM] | CMC (wt %) [4] [wt %] | activity of LeuT over time ([5]; TMMs or DDM at CMC+0.04 wt %, incubation at room temperature, FIG. 13a) | amount of MelBSt solubilized / extraction efficiency ([3]; 45° C.) | amount of MelBSt solubilized / extraction efficiency ([3]; 55° C.) | substrate-binding ability of LeuT ([5]; TMGs or DDM at CMC+0.04 wt %, 10 days at room temperature)
1 | CCCCCCCCCCCCO[C@@H]1O[C@H](CO)[C@@H](O[C@H]2O[C@H](CO)[C@@H](O)[C@H](O)[C@H]2O)[C@H](O)[C@H]1O [DDM, n-dodecyl-β-D-maltopyranoside, reference compound] | significantly reduced complex stabilization as the concentration increased from CMC+0.04 wt % to CMC+0.2 wt % | 3.4 ± 0.03 | slightly more excellent protein extraction efficiency than TMGs | 10 | not detected | ~0.17 | ~0.0087 | gradually reduced over time |  |  | 
2 | CCCCCCCCCCCCC(CCCC(CCCCCCCCCCCC)(CO[C@@H]1OC(CO)[C@@H](O)C(O)C1O)CO[C@@H]1OC(CO)[C@@H](O)C(O)C1O)(CO[C@@H]1OC(CO)[C@@H](O)C(O)C1O)CO[C@@H]1OC(CO)[C@@H](O)C(O)C1O (some centres unmarked) [TMG-A12] |  | 3.3 ± 0.09 |  |  |  | ~0.010 | ~0.0012 |  | almost all MelBSt was successfully extracted | excellent protein extraction efficiency was able to be confirmed | substantially higher substrate-binding ability of the transporter than DDM; also recorded: well maintained for 10 days
